Data on 20 molecules can be found in US20140243286A1, “BROMODOMAIN LIGANDS CAPABLE OF DIMERIZING IN AN AQUEOUS SOLUTION, AND METHODS OF USING SAME” (Coferon, Inc., priority 2011, published 2014).

The target in one assay is BRD3 (Homo sapiens, UniProt Q15059). As to the kind of experiment: Fluorescence anisotropy (FA) binding assay, BRD3. The method, then:
(§1) Fluorescence Anisotropy (FA) Binding Assays.
(§2) FA assays were performed as described in Chung et al., J. Med Chem., 2011 54(11): 3827-38 except that protein concentrations were 125 nM and plates were read on a Spectramax M5 plate reader.
Background: In fluorescence polarisation assays a small probe gives low polarisation when free and higher when bound to something large.

A further assay has as its target BRD2 (Homo sapiens, UniProt P25440). The assay can be described thus: Fluorescence anisotropy (FA) binding assay, BRD2. The method, then: as §1, §2
The next assay concerns the target BRD4 (Homo sapiens, UniProt O60885). As to the kind of experiment: Fluorescence anisotropy (FA) binding assay, BRD4. The method, then:
as §1, §2

The mark [1] stands for this setting: BRD3, protein 125 nM, read-out: IC50 range (FA assay) BRD3, BRD-E monomers.
The mark [2] stands for this setting: BRD2, protein 125 nM, read-out: IC50 range (FA assay) BRD2, BRD-E monomers.
Setting [3] is: BRD4, protein 125 nM, read-out: IC50 range (FA assay) BRD4, BRD-E monomers.
Where [4] appears, read: BRD3, protein 125 nM, read-out: IC50 range (FA assay) BRD3, BRD-N monomers.
Where [5] appears, read: BRD2, protein 125 nM, read-out: IC50 range (FA assay) BRD2, BRD-N monomers.
The mark [6] stands for this setting: BRD4, protein 125 nM, read-out: IC50 range (FA assay) BRD4, BRD-N monomers.

Where two headings read alike, the source gives them in different places.

BRD2, sequence (P25440 whole entry): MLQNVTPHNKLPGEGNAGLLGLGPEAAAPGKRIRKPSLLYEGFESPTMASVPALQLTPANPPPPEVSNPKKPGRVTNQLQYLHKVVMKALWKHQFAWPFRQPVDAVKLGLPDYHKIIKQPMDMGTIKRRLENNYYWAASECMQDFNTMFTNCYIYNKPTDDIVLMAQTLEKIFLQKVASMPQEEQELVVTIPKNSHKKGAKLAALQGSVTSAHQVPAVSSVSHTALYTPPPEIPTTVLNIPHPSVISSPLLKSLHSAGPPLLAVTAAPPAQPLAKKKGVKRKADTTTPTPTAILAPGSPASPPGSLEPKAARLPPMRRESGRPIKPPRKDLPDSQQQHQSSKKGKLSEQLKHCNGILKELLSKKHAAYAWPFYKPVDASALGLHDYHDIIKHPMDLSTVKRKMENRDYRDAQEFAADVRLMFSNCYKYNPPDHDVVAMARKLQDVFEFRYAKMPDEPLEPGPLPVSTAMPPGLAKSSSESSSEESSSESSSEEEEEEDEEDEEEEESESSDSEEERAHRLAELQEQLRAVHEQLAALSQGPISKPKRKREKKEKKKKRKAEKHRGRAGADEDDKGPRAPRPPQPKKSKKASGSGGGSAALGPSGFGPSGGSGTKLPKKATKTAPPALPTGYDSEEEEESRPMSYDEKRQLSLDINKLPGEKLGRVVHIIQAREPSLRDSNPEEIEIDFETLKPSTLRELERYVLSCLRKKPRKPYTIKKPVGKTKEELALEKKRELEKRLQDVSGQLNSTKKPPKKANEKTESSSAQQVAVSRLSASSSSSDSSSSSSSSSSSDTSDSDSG
BRD3, sequence (Q15059 whole entry): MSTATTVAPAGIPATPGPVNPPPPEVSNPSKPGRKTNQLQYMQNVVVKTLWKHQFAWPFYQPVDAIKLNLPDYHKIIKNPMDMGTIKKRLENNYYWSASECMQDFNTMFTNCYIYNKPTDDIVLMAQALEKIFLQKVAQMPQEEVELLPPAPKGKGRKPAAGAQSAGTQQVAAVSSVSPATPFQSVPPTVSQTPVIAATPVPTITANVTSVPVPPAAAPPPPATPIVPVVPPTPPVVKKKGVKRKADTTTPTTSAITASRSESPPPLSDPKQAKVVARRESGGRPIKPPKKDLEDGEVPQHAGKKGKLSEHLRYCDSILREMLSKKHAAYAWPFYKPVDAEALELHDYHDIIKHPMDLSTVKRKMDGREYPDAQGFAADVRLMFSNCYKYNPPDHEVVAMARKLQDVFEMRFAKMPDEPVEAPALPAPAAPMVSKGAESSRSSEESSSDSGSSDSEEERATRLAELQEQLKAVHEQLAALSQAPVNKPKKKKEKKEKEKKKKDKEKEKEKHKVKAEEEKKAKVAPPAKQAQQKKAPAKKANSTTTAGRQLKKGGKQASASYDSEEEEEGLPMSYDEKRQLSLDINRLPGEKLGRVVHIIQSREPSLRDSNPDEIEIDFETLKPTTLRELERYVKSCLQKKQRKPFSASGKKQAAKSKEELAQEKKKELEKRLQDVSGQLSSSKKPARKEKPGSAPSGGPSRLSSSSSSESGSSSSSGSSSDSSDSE

Consider `COc1ccc2c(c1)C(c1ccc(Cl)cc1)=N[C@@H](CC(=O)NCCCCCNC(=O)c1cccc(B(O)O)c1)c1nnc(C)n1-2` [BRD-E-08, (3-((5-(2-((4S)-6-(4-chlorophenyl)-8-methoxy-1-methyl-4H-benzo[f][1,2,4]triazolo[4,3-a][1,4]diazepin-4-yl)acetamido)pentyl)carbamoyl)phenyl)-boronic acid], for which the IC50 on BRD3 (setting [1]), on BRD2 (setting [2]) and at BRD4 (setting [3]) was 50 to 1000 nM in each case.
For the molecule `COc1ccc2c(c1)C(c1ccc(Cl)cc1)=N[C@@H](CC(=O)NCc1ccc(B(O)O)cc1)c1nnc(C)n1-2` [BRD-E-09, (S)-(4-((2-(6-(4-chlorophenyl)-8-methoxy-1-methyl-4H-benzo[f][1,2,4]triazolo[4,3-a][1,4]diazepin-4-yl)acetamido)methyl)phenyl)boronic acid], the concentration for half-maximal inhibition (IC50) on BRD3 (setting [1]), on BRD2 (setting [2]) and on BRD4 (setting [3]) was 50 to 1000 nM in each case.
For the molecule `COc1ccc2c(c1)C(c1ccc(Cl)cc1)=N[C@@H](CC(=O)NCc1cccc(B(O)O)c1)c1nnc(C)n1-2` [BRD-E-10, (S)-(3-((2-(6-(4-chlorophenyl)-8-methoxy-1-methyl-4H-benzo[f][1,2,4]triazolo[4,3-a][1,4]diazepin-4-yl)acetamido)methyl)phenyl)boronic acid], the IC50 at BRD3, on BRD2 and on BRD4 was 50 to 1000 nM in each case.
For the molecule `COc1ccc2c(c1)C(c1ccc(Cl)cc1)=N[C@@H](CC(=O)NCCc1ccc(B(O)O)cc1)c1nnc(C)n1-2` [BRD-E-13, (S)-(4-(2-(2-(6-(4-chlorophenyl)-8-methoxy-1-methyl-4H-benzo[f][1,2,4]triazolo[4,3-a][1,4]diazepin-4-yl)acetamido)ethyl)phenyl)boronic acid], the IC50 at BRD3 (setting [1]) was 50 to 1000 nM; on BRD2 (setting [2]), 1000 to 30000 nM; at BRD4 (setting [3]) it was 50 to 1000 nM.
For the molecule `COc1ccc2c(c1)C(c1ccc(Cl)cc1)=N[C@@H](CC(=O)NCCc1cccc(B(O)O)c1)c1nnc(C)n1-2` [BRD-E-14, (S)-(3-(2-(2-(6-(4-chlorophenyl)-8-methoxy-1-methyl-4H-benzo[f][1,2,4]triazolo[4,3-a][1,4]diazepin-4-yl)acetamido)ethyl)phenyl)boronic acid], the half-maximal inhibitory concentration (IC50) on BRD3 (setting [1]), on BRD2 (setting [2]) and at BRD4 (setting [3]) was 50 to 1000 nM each time.
Take `CCNC(=O)C[C@@H]1N=C(c2ccc(Cl)cc2)c2cc(OCC(=O)Nc3cccc(B(O)O)c3)ccc2-n2c(C)nnc21` [BRD-E-15, (S)-(3-(2-((6-(4-chlorophenyl)-4-(2-(ethylamino)-2-oxoethyl)-1-methyl-4H-benzo[f][1,2,4]triazolo[4,3-a][1,4]diazepin-8-yl)oxy)acetamido)phenyl)boronic acid]: the IC50 at BRD3 (setting [1]) lay within 50 to 1000 nM; at BRD2 (setting [2]), 1000 to 30000 nM; at BRD4 (setting [3]) it was 50 to 1000 nM.
As for `CCNC(=O)C[C@@H]1N=C(c2ccc(Cl)cc2)c2cc(OCC(=O)Nc3ccc(B(O)O)cc3)ccc2-n2c(C)nnc21` [BRD-E-16, (S)-(4-(2-((6-(4-chlorophenyl)-4-(2-(ethylamino)-2-oxoethyl)-1-methyl-4H-benzo[f][1,2,4]triazolo[4,3-a][1,4]diazepin-8-yl)oxy)acetamido)phenyl)boronic acid], the IC50 at BRD3 (setting [1]) is 50 to 1000 nM; at BRD2 (setting [2]), 1000 to 30000 nM; at BRD4 (setting [3]), 50 to 1000 nM.
Take `CCNC(=O)C[C@@H]1N=C(c2ccc(Cl)cc2)c2cc(OCCCC(=O)Nc3cccc(B(O)O)c3)ccc2-n2c(C)nnc21` [BRD-E-19]: the IC50 on BRD3 (setting [1]), at BRD2 (setting [2]) and on BRD4 (setting [3]) was 50 to 1000 nM in each case.
As to `CCNC(=O)C[C@@H]1N=C(c2ccc(Cl)cc2)c2cc(OCCCCC(=O)Nc3cccc(B(O)O)c3)ccc2-n2c(C)nnc21` [BRD-E-20, (S)-(3-(5-((6-(4-chlorophenyl)-4-(2-(ethylamino)-2-oxoethyl)-1-methyl-4H-benzo[f][1,2,4]triazolo[4,3-a][1,4]diazepin-8-yl)oxy)pentanamido)phenyl)boronic acid], the IC50 at BRD3 (setting [1]), at BRD2 (setting [2]) and at BRD4 (setting [3]) was 50 to 1000 nM throughout.
`CCNC(=O)C[C@@H]1N=C(c2ccc(Cl)cc2)c2cc(OCCNC(=O)c3cccc(B(O)O)c3)ccc2-n2c(C)nnc21` [BRD-E-21, (S)-(3-((2-((6-(4-chlorophenyl)-4-(2-(ethylamino)-2-oxoethyl)-1-methyl-4H-benzo[f][1,2,4]triazolo[4,3-a]diazepin-8-yl)oxy)ethyl)carbamoyl)phenyl)boronic acid]: the IC50 at BRD3 (setting [1]), at BRD2 (setting [2]) and at BRD4 (setting [3]) was 50 to 1000 nM each time.
Regarding `CCNC(=O)C[C@@H]1N=C(c2ccc(Cl)cc2)c2cc(OCCNC(=O)c3ccc(B(O)O)cc3)ccc2-n2c(C)nnc21` [BRD-E-22, (S)-(4-((2-((6-(4-chlorophenyl)-4-(2-(ethylamino)-2-oxoethyl)-1-methyl-4H-benzo[f][1,2,4]triazolo[4,3-a]diazepin-8-yl)oxy)ethyl)carbamoyl)phenyl)boronic acid], the IC50 on BRD3 (setting [1]), at BRD2 (setting [2]) and at BRD4 (setting [3]) was 50 to 1000 nM each time.
Take `CCNC(=O)C[C@@H]1N=C(c2ccc(Cl)cc2)c2cc(OCCCNC(=O)c3cccc(B(O)O)c3)ccc2-n2c(C)nnc21` [BRD-E-23, (S)-(3-((3-((6-(4-chlorophenyl)-4-(2-(ethylamino)-2-oxoethyl)-1-methyl-4H-benzo[f][1,2,4]triazolo[4,3-a][1,4]diazepin-8-yl)oxy)propyl)carbamoyl)phenyl)boronic acid]: the half-inhibitory concentration (IC50) at BRD3 (setting [1]), on BRD2 (setting [2]) and on BRD4 (setting [3]) was 1000 to 30000 nM in each case.
With `CCNC(=O)C[C@@H]1N=C(c2ccc(Cl)cc2)c2cc(OCCCNC(=O)c3ccc(B(O)O)cc3)ccc2-n2c(C)nnc21` [BRD-E-24, (S)-(4-((3-((6-(4-chlorophenyl)-4-(2-(ethylamino)-2-oxoethyl)-1-methyl-4H-benzo[f][1,2,4]triazolo[4,3-a][1,4]diazepin-8-yl)oxy)propyl)carbamoyl)phenyl)-boronic acid], the IC50 at BRD3 (setting [1]) was in the range of 50 to 1000 nM; at BRD2 (setting [2]) it was 1000 to 30000 nM; at BRD4 (setting [3]), 50 to 1000 nM.
As to `CCNC(=O)C[C@@H]1N=C(c2ccc(Cl)cc2)c2cc(OCCCCNC(=O)c3cccc(B(O)O)c3)ccc2-n2c(C)nnc21` [BRD-E-25, (S)-(3-((4-((6-(4-chlorophenyl)-4-(2-(ethylamino)-2-oxoethyl)-1-methyl-4H-benzo[f][1,2,4]triazolo[4,3-a][1,4]diazepin-8-yl)oxy)butyl)carbamoyl)phenyl)boronic acid], the half-inhibitory concentration (IC50) on BRD3 (setting [1]), on BRD2 (setting [2]) and at BRD4 (setting [3]) was 1000 to 30000 nM throughout.
In the case of `CCNC(=O)C[C@@H]1N=C(c2ccc(Cl)cc2)c2cc(OCCCCNC(=O)c3ccc(B(O)O)cc3)ccc2-n2c(C)nnc21` [BRD-E-26, (S)-(4-((4-((6-(4-chlorophenyl)-4-(2-(ethylamino)-2-oxoethyl)-1-methyl-4H-benzo[f][1,2,4]triazolo[4,3-a][1,4]diazepin-8-yl)oxy)butyl)carbamoyl)phenyl)boronic acid], the IC50 on BRD3 (setting [1]), at BRD2 (setting [2]) and at BRD4 (setting [3]) was 50 to 1000 nM each time.
`COc1ccc2c(c1)C(c1ccc(Cl)cc1)=N[C@@H](CC(=O)NCCNC(=O)/C=C/c1ccc(B(O)O)cc1)c1nnc(C)n1-2` [BRD-E-29, (4-((E)-3-((2-(2-((4S)-6-(4-chlorophenyl)-8-methoxy-1-methyl-4H-benzo[f][1,2,4]triazolo[4,3-a][1,4]diazepin-4-yl)acetamido)ethyl)amino)-3-oxoprop-1-en-1-yl)phenyl)boronic acid]: the IC50 at BRD3 (setting [1]), on BRD2 (setting [2]) and at BRD4 (setting [3]) was 50 to 1000 nM in each case.
As to `COc1ccc2c(c1)C(c1ccc(Cl)cc1)=N[C@@H](CC(=O)NCCNC(=O)c1cccc(-c3cccc(B(O)O)c3)c1)c1nnc(C)n1-2` [BRD-E-31, (3′-((2-(2-((4S)-6-(4-chlorophenyl)-8-methoxy-1-methyl-4H-benzo[f][1,2,4]triazolo[4,3-a][1,4]diazepin-4-yl)acetamido)ethyl)carbamoyl)-[1,1′-biphenyl]-3-yl)boronic acid], the IC50 on BRD3 (setting [1]), at BRD2 (setting [2]) and at BRD4 (setting [3]) was 50 to 1000 nM each time.
As for `COc1ccc2c(c1)C(c1ccc(Cl)cc1)=N[C@@H](CC(=O)NCCNC(=O)Cc1cccc(B(O)O)c1)c1nnc(C)n1-2` [BRD-E-38, (3-(2-((2-(2-((4S)-6-(4-chlorophenyl)-8-methoxy-1-methyl-4H-benzo[f][1,2,4]triazolo[4,3-a][1,4]diazepin-4-yl)acetamido)ethyl)amino)-2-oxoethyl)phenyl)boronic acid], the half-maximal inhibitory concentration (IC50) at BRD3 (setting [1]), at BRD2 (setting [2]) and on BRD4 (setting [3]) was 50 to 1000 nM each time.
For the molecule `COc1ccc2c(c1)C(c1ccc(Cl)cc1)=N[C@@H](CC(=O)NCCNC(=O)c1ccc(O)c(O)c1)c1nnc(C)n1-2` [BRD-N-01, N-(2-(2-((4S)-6-(4-chlorophenyl)-8-methoxy-1-methyl-4H-benzo[f][1,2,4]triazolo[4,3-a][1,4]diazepin-4-yl)acetamido)ethyl)-3,4-dihydroxybenzamide], the IC50 on BRD3 (setting [4]), on BRD2 (setting [5]) and on BRD4 (setting [6]) was 50 to 1000 nM in each case.
In the case of `COc1ccc2c(c1)C(c1ccc(Cl)cc1)=N[C@@H](CC(=O)NCCNC(=O)c1cccc(O)c1O)c1nnc(C)n1-2` [BRD-N-02, N-(2-(2-((4S)-6-(4-chlorophenyl)-8-methoxy-1-methyl-4H-benzo[f][1,2,4]triazolo[4,3-a][1,4]diazepin-4-yl)acetamido)ethyl)-2,3-dihydroxybenzamide], the IC50 at BRD3 (setting [4]), at BRD2 (setting [5]) and on BRD4 (setting [6]) was 50 to 1000 nM each time.

One may read the IC50 as the concentration that gives 50% inhibition.
